Data: Sander's compilation of Henry's law constants (doi:10.1021/je300954s)

Assay: Henry solubility constant Hcp at 298.15 K (mol/(m3 Pa))
Conditions: reference: Lee et al. (2012)

| Compound | Henry solubility constant Hcp |
| --- | --- |
| c1ccc2ccccc2c1 [naphthalene] | 0.06 |
| c1ccc2c(c1)-c1cccc3cccc-2c13 [benzo[jk]fluorene] | 0.34 |
| CCCCOC(=O)c1ccccc1C(=O)OCc1ccccc1 [butyl benzyl phthalate] | 100 |
| c1ccc2c(c1)cc1ccc3cccc4ccc2c1c34 [benzo[a]pyrene] | 6.2 |
| c1ccc2c(c1)ccc1c3ccccc3ccc21 [chrysene] | 2.1 |
| c1ccc2cc3ccccc3cc2c1 [anthracene] | 0.16 |
| c1ccc2c(c1)ccc1ccccc12 [phenanthrene] | 0.18 |
| Clc1cc(Cl)c(Cl)cc1Cl [1,2,4,5-tetrachlorobenzene] | 0.0066 |
| Cc1c([N+](=O)[O-])c(C)c([N+](=O)[O-])c(C(C)(C)C)c1[N+](=O)[O-] [2,4,6-trinitro-1,3-dimethyl-5-tert-butylbenzene] | 0.32 |
| c1ccc2c(c1)Cc1ccccc1-2 [2,3-benzindene] | 0.32 |
| Clc1cccc(Cl)c1Cl [1,2,3-trichlorobenzene] | 0.008 |
| CC(=O)c1c(C)c([N+](=O)[O-])c(C(C)(C)C)c([N+](=O)[O-])c1C [musk ketone] | 3 |
| c1ccc2cc3c(cc2c1)-c1cccc2cccc-3c12 [benzo[k]fluoranthene] | 10 |
| CCCCOC(=O)c1ccccc1C(=O)OCCCC [dibutyl phthalate] | 9.3 |
| c1cc2c3c(cccc3c1)CC2 [acenaphthene] | 0.26 |
